Marks after values point to notes of the source that are not given here.
Legend:
[1] = tested on: human primary hepatic stellate cells (hHSC); experiment: PDGF-BB-induced hHSC proliferation, BrdU incorporation; format: cell-based; conditions: PDGF-BB 10 ng/ml; for Inhibition of the PDGF-BB-induced hHSC proliferation: BrdU Incorporation: 10 μM
Description: (§1) Compounds were dissolved in dimethyl sulfoxide (DMSO, Fluka cat #41640)
(§2) The human primary hepatic stellate cells (hHSC) (ScienCell) were cultured in STeCM medium (ScienCell cat #5301) that was supplemented with 2% fetal bovine serum (FBS, ScienCell cat #0010), 1% penicillin/streptomycine (ScienCell cat #0503) and stellate cell growth supplement (SteCGS; ScienCell cat #5352). Culture plastics were coated with Poly-L Lysine (Sigma cat # P4707).
hHSC were plated at a density of 1.2×10^4 cells/well into 96-well plates and were cultured overnight at 37° C. and 5% CO2, followed by washing of cells with PBS (Invitrogen cat #14190) and replacing the growth medium with a serum-free and SteCGS-free medium for an additional 24 hours. For PDGF-induced proliferation assay, cells were pre-treated with a compound of General Formula (I) for 1 hour before the addition of PDGF-BB (10 ng/ml; R&D Systems cat #520-BB). Treatments were then continued for additional 20 hours.
Cell proliferation was measured by bromodeoxyuridine (BrdU) incorporation using a BrdU labeling and detection kit (Roche cat #11647229001). BrdU labeling solution was added to cells, followed by incubation for another 4 hours before fixation, addition of nucleases, addition of anti-BrdU-POD and peroxidase substrate. The absorbance at 405 nm (with a reference wavelength at 690 nm) was measured using an ELISA plate reader (Tecan).

[2] = tested on: human primary hepatic stellate cells (hHSC); experiment: TGFβ1-induced hHSC activation, gene expression by quantitative PCR; format: cell-based; conditions: TGFβ1 1 ng/ml, 24 hours; for Inhibition of the TGFβ1-induced hHSC activation: Col1α1 / Inhibition of the TGFβ1-induced hHSC activation: Col4α1 / Inhibition of the TGFβ1-induced hHSC activation: αSMA: 10 μM; for inhibition at 10 µM: Homo sapiens
Description: as §1, §2
The human primary hepatic stellate cells (hHSC) (ScienCell) were cultured under standard conditions, as described above. For experiments to determine gene expression patterns, hHSC were plated at a density of 7×10^4 cells/well into 24-well plates and were cultured overnight. Next day, culture medium was replaced by serum-free and SteCGS-free medium for an additional 16 hours. Cells were treated with a compound of General Formula (I) in addition to TGFβ1 (1 ng/ml) in a serum-free and SteCGS-free medium for 24 hours.
Total RNA was isolated using Nucleospin® 96 RNA kit (Macherey Nagel) following manufacturer's instructions. 100 ng of total RNA were reverse transcribed in cDNA using M-MLV RT (Moloney Murine Leukemia Virus Reverse Transcriptase) (Invitrogen cat #28025) in presence of RT buffer 1× (Invitrogen), 1 mM DTT (Invitrogen), 0.18 mM dNTPs (Promega), 200 ng pdN6 (Amersham) and 30U of RNase inhibitor (Promega).
Quantitative PCR was then carried out using the CFX96 TOUCH™ Real-Time PCR Detection System (Biorad). Briefly, PCR reactions were performed in 96 well plates on 5 μl of 5× diluted reverse transcription mix using the iQ SYBR Green Supermix kit. The experimental conditions were: 25 μl of volume reaction, 3 mM of MgCl2, and 0.5 μl each of reverse and forward primers (10 pMol).
Expression levels were normalized using the expression of 36B4 gene as reference (sequences SEQ ID NO: 1 and SEQ ID NO: 2 as shown above).
For each gene, the standard curves were drawn by selecting the best points (at least three points) in order to have PCR reaction efficiency close to 100% and a correlation coefficient close to 1. Expression levels were determined using the standard curve equation for both the housekeeping gene and the target gene (taking into account the specific PCR efficiency of each target gene).

SMILES: Cc1cc(C=CC(=O)c2ccc(OCCC3CCCCC3)cc2)cc(C)c1OC(C)(C)C(=O)O [Cpd 11 WO2005073184, 1-(4-Cyclohexylethyloxyphenyl)-3-(4-carboxydimethylmethyloxy-3,5-dimethylphenyl)prop-2-en-1-one]
- Inhibition of the PDGF-BB-induced hHSC proliferation: BrdU Incorporation [1]: −6%^
- Inhibition of the TGFβ1-induced hHSC activation: Col1α1 [2]: −66% **
- Inhibition of the TGFβ1-induced hHSC activation: Col4α1 [2]: −78% ***
- Inhibition of the TGFβ1-induced hHSC activation: αSMA [2]: −92% ***

SMILES: Cc1cc(C=CC(=O)c2ccc(Cl)cc2)cc(C)c1OC(C)(C)C(=O)O [Cpd 17 WO2004OO5233, 1-[4-chlorophenyl]-3-[3,5-dimethyl-4-carboxydimethylmethyloxyphenyl]prop-2-en-1-one]
- Inhibition of the PDGF-BB-induced hHSC proliferation: BrdU Incorporation [1]: 6%
- Inhibition of the TGFβ1-induced hHSC activation: Col1α1 [2]: −29%
- Inhibition of the TGFβ1-induced hHSC activation: Col4α1 [2]: −56% ***
- Inhibition of the TGFβ1-induced hHSC activation: αSMA [2]: −30% ***

SMILES: CCCCCCOc1ccc(C(=O)C=Cc2cc(C)c(OC(C)(C)C(=O)O)c(C)c2)cc1 [Cpd 33 WO2004OO5233, 1-[4-hexyloxyphenyl]-3-[3,5-dimethyl-4-carboxydimethylmethyloxyphenyl]prop-2-en-1-one]
- Inhibition of the PDGF-BB-induced hHSC proliferation: BrdU Incorporation [1]: 35%^
- Inhibition of the TGFβ1-induced hHSC activation: Col1α1 [2]: −58% *
- Inhibition of the TGFβ1-induced hHSC activation: Col4α1 [2]: −73% ***
- Inhibition of the TGFβ1-induced hHSC activation: αSMA [2]: −71% ***

SMILES: Cc1cc(C=CC(=O)c2ccc(Oc3ccccc3)cc2)cc(C)c1OC(C)(C)C(=O)O [Cpd 33 WO2005073184, 1-(4-Phenyloxyphenyl)-3-(4-carboxydimethylmethyloxy-3,5-dimethylphenyl)prop-2-en-1-one]
- Inhibition of the PDGF-BB-induced hHSC proliferation: BrdU Incorporation [1]: −127% ***
- Inhibition of the TGFβ1-induced hHSC activation: Col1α1 [2]: −37%
- Inhibition of the TGFβ1-induced hHSC activation: Col4α1 [2]: 12% ^
- Inhibition of the TGFβ1-induced hHSC activation: αSMA [2]: −49% ***

SMILES: Cc1cc(C=CC(=O)c2ccc(Br)cc2)cc(C)c1OC(C)(C)C(=O)O [Cpd 41 WO2004OO5233, 1-[4-bromophenyl]-3-[3,5-dimethyl-4-carboxydimethylmethyloxyphenyl]prop-2-en-1-one]
- Inhibition of the PDGF-BB-induced hHSC proliferation: BrdU Incorporation [1]: −34%
- Inhibition of the TGFβ1-induced hHSC activation: Col1α1 [2]: −28%
- Inhibition of the TGFβ1-induced hHSC activation: Col4α1 [2]: −32% **
- Inhibition of the TGFβ1-induced hHSC activation: αSMA [2]: −2%

SMILES: Cc1cc(C=CC(=O)c2ccc(SC(F)(F)F)cc2)cc(C)c1OC(C)(C)C(=O)O [Cpd 54 US20070032543, 1-[4-trifluoromethylthiophenyl]3-[3,5-dimethyl-4-carboxydimethymethyoxyphenyl]prop-2-en-1-one]
- Inhibition of the PDGF-BB-induced hHSC proliferation: BrdU Incorporation [1]: 12%^
- Inhibition of the TGFβ1-induced hHSC activation: Col1α1 [2]: −27%
- Inhibition of the TGFβ1-induced hHSC activation: Col4α1 [2]: −40% ***
- Inhibition of the TGFβ1-induced hHSC activation: αSMA [2]: −57% ***

SMILES: CCc1cc(C=CC(=O)c2ccc(C(C)C)cc2)cc(CC)c1OC(C)(C)C(=O)O [Cpd 56 US20070032543, 1-[4-isopropylphenyl]-3-[3,5-diethyl-4-carboxydimethylmethyloxyphenyl]prop-2-en-1-one]
- Inhibition of the PDGF-BB-induced hHSC proliferation: BrdU Incorporation [1]: −127% ***
- Inhibition of the TGFβ1-induced hHSC activation: Col1α1 [2]: −62% **
- Inhibition of the TGFβ1-induced hHSC activation: Col4α1 [2]: −66% ***
- Inhibition of the TGFβ1-induced hHSC activation: αSMA [2]: −87% ***

SMILES: Cc1cc(C=CC(=O)c2ccc(C(F)(F)F)cc2)cc(C)c1OC(C)(C)C(=O)O [Cpd 58 US20070032543, 1-[4-trifluoromethylphenyl]-3-[3,5-dimethyl-4-carboxydimethylmethyloxyphenyl]prop-2-en-1-one]
- Inhibition of the PDGF-BB-induced hHSC proliferation: BrdU Incorporation [1]: −5%^
- Inhibition of the TGFβ1-induced hHSC activation: Col1α1 [2]: 55% *
- Inhibition of the TGFβ1-induced hHSC activation: Col4α1 [2]: −3%
- Inhibition of the TGFβ1-induced hHSC activation: αSMA [2]: 5%^

SMILES: CSc1ccc(C(=O)C=Cc2cc(C)c(OCC(=O)O)c(C)c2)cc1 [Cpd 72 US20070032543, 1-[4-methylthiophenyl]-3-[3,5-dimethyl-4-carboxymethyloxyphenyl]prop-2-en-1-one]
- inhibition at 10 µM ([1]; Homo sapiens): 126%
- inhibition at 10 µM ([2]; read-out: Inhibition of the TGFβ1-induced hHSC activation: Col1α1): 37%
- inhibition at 10 µM ([2]; read-out: Inhibition of the TGFβ1-induced hHSC activation: Col4α1): 51%
- inhibition at 10 µM ([2]; read-out: Inhibition of the TGFβ1-induced hHSC activation: αSMA): 74%

SMILES: CSc1ccc(C(=O)C=Cc2cc(C(C)C)c(OCC(=O)O)c(C(C)C)c2)cc1 [Cpd 74 US20070032543, 1-[4-methylthiophenyl]-3-[3,5-diisopropyl-4-carboxymethyloxyphenyl]prop-2-en-one]
- Inhibition of the PDGF-BB-induced hHSC proliferation: BrdU Incorporation [1]: −127% ***
- Inhibition of the TGFβ1-induced hHSC activation: Col1α1 [2]: −82% ***
- Inhibition of the TGFβ1-induced hHSC activation: Col4α1 [2]: −85% ***
- Inhibition of the TGFβ1-induced hHSC activation: αSMA [2]: −97% ***

SMILES: COc1ccc(C(=O)C=Cc2cc(C)c(OC(C)(C)C(=O)O)c(C)c2)cc1 [Cpd 80 US20070032543, 1-[4-methyoxyphenyl]-3-[3,5-dimethyl-4-carboxydimethylmethyloxyphenyl]prop-2-en-1-one]
- Inhibition of the PDGF-BB-induced hHSC proliferation: BrdU Incorporation [1]: −136% ***
- Inhibition of the TGFβ1-induced hHSC activation: Col1α1 [2]: −64% **
- Inhibition of the TGFβ1-induced hHSC activation: Col4α1 [2]: −66% ***
- Inhibition of the TGFβ1-induced hHSC activation: αSMA [2]: −55% ***

SMILES: CCCCCCSc1ccc(C(=O)C=Cc2cc(C)c(OC(C)(C)C(=O)O)c(C)c2)cc1 [Cpd 84 US20070032543, 1-[4-hexylthiophenyl]-3-[3,5-dimethyl-4-carboxydimethylmethyloxyphenyl]prop-2-en-1-one]
- Inhibition of the PDGF-BB-induced hHSC proliferation: BrdU Incorporation [1]: −33%
- Inhibition of the TGFβ1-induced hHSC activation: Col1α1 [2]: −60% **
- Inhibition of the TGFβ1-induced hHSC activation: Col4α1 [2]: −64% ***
- Inhibition of the TGFβ1-induced hHSC activation: αSMA [2]: −64% ***
